Experiments:
methane = details: retrospective study; cited from earlier work
[1] = tested on: non-constipated IBS subjects; details: cited from earlier work
[2] = tested on: C-IBS subjects with methane; assay: Randomized double-blind trial in methane-positive C-IBS subjects: weekly symptom severity questionnaires (VAS 0-100); assay type: in vivo, human
Method: Consecutive C-IBS subjects (18-65 yrs of age) (Rome III criteria) were recruited after applying exclusion criteria. All subjects presented for a lactulose breath test after a 12 hour fast. Only subjects with methane level >3 ppm on at least 1 breath sample were enrolled. Subjects then completed a stool diary, questionnaire (100 point VAS scale for bloating, abdominal pain, constipation, diarrhea and straining) and 2 week run in phase. […] Questionnaires were repeated weekly during treatment and for 4 weeks following completion of treatment. On the last week of follow up, the stool diary was repeated.
Consecutive patients (18-65 yrs of age) who fulfilled the Rome II criteria for C-IBS^2 were recruited. Patients were included if they reported <3 complete and spontaneous bowel movements (CSBMs) per week and had breath methane >3 ppm. […] Subjects were also excluded if they had taken an antibiotic or probiotic in the previous 30 days or were currently taking narcotics, proton pump inhibitors, tricyclic antidepressants, or medications known to alter intestinal motility. All subjects provided informed written consent and the study was approved by the institutional review board of all three study sites. Subjects who completed the study received a stipend. The study was registered with clinicaltrials.gov (NCT00945334).
The allocation was concealed. […] The pharmacy, investigators and patients were blinded.
(§1) Following completion of therapy, subjects were asked to continue with the weekly symptom questionnaires for an additional 4 weeks. During the final week of follow up, subjects were asked to repeat the 7-day stool diary followed by the final weekly questionnaire. Finally, subjects were asked to repeat a single fasting breath sample to examine for the presence of methane.
The baseline study questionnaire included subject demographics as well as symptom severity information. Follow-up questionnaires included a repeat evaluation of symptom severity. The following were assessed: abdominal pain, constipation, bloating, urgency, incomplete evacuation, straining and diarrhea. Severity was rated using a visual analog scale (VAS) from 0-100 mm (with 0=no symptom and 100=severe symptoms).
The primary outcome measure of this study was constipation severity as assessed on a VAS score from the first week following completion of the treatment phase. […] In addition, the eradication of methane was evaluated as a determinant of improvement at 4 weeks post therapy.
Data were expressed as mean±SD.
To examine the effect of each group over the duration of the study, a mixed longitudinal model was used. […] The models were analyzed with a single covariate (baseline diarrhea, constipation, abdominal pain, or bloating severity score). […]

breath methane = assay: Fasting breath sample for methane after therapy in the same trial; assay type: in vivo, human
Method: as §1
Subjects were asked to fast for 12 hours prior to a breath sample being obtained. Breath samples were collected via a Quintron dual bag collecting system (Quintron Instrument Company, Milwaukee, Wis.). The sampled gas was analyzed using a BreathTracker SC (Quintron Instrument Company, Milwaukee, Wis.). Output was reported as methane in parts per million (ppm) after correction for alveolar sample quality using breath CO2 concentration.
The primary outcome measure of this study was constipation severity as assessed on a VAS score from the first week following completion of the treatment phase. Secondary outcome measures included the severity of constipation, abdominal pain, urgency, bloating and straining over the entire study period. In addition, the eradication of methane was evaluated as a determinant of improvement at 4 weeks post therapy.

[3] = in vivo
Method: All subjects with a diagnosis of C-IBS presented for a fasting breath test after a 12 hour fast. Only subjects with methane level of >3 ppm on a single breath sample were enrolled. Subjects then completed a baseline study questionnaire and a baseline audiogram. […] Subjects were then asked to complete a daily stool diary for two weeks with weekly questionnaires for overall symptom severity. Subjects were eligible for randomization only if they were confirmed to have <3 CSBMs per week during stool diary.
The randomization scheme was set in blocks of 4 and each site received batches of drug in multiples of 4 to balance each study site into blocks. The allocation was concealed. The randomization was done by the drug company with a tracking list provided to the study site pharmacy in a concealed envelope. The pharmacy, investigators and patients were blinded. During the 14 days of treatment, subjects completed weekly symptom questionnaires (2 questionnaires over 2 weeks).
Baseline qualitative data and side effect rates were compared by Fisher's Exact Test. Quantitative baseline data was normal so were compared by t-Test. Data were expressed as mean±SD. The primary endpoint was also normally distributed and compared by t-test.

[4] = tested on: non-selected population of IBS; details: cited from earlier work
[5] = by week 2 of treatment, 100 point VAS, mean±SD

Row | Compound | benefit of single antibiotic (methane) | duration of benefits following cessation of therapy ([1]; after 14 days of rifaximin therapy, global symptom rating, bloating, stool consistency, abdominal pain) [months] | efficacy versus placebo in the treatment of IBS ([1]; multiple published randomized trials) | bloating severity (VAS) [2, 5] | constipation VAS score [2, 5] | difference in constipation severity between subjects with and without methane ≦3 ppm ([2]; final visit) | VAS score for constipation (primary endpoint) ([2]; one week after completion of 14 days of therapy, ITT, mean±SD) | reduction in methane from baseline (median drop) (breath methane; fasting breath sample, final visit vs baseline) [ppm] | subjects with methane levels ≦3 ppm following treatment (breath methane; final visit, of 15 subjects (rifaximin plus neomycin), out of 16 subjects (neomycin)) [subjects] | Side effect: Abdominal pain [3] | Side effect: Bloating and distension [3] | Side effect: Constipation [3] | Side effect: Diarrhea [3] | Side effect: Nausea [3] | Side effect: Urgency [3] | improvement of IBS compared to placebo [4] | rate of normalizing the breath test [4]
1 | CO[C@H]1/C=C/O[C@@]2(C)Oc3c(C)c(O)c4c(O)c(c5c(nc6cc(C)ccn65)c4c3C2=O)NC(=O)/C(C)=C\C=C\[C@H](C)[C@H](O)[C@@H](C)[C@@H](O)[C@@H](C)[C@H](OC(C)=O)[C@@H]1C [Rifaximin, rifaximin] | did not have a substantial benefit | 3 | superiority over placebo | – | – | – | – | – | – | – | – | – | – | – | – | – | –
2 | neomycin | did not have a substantial benefit | – | – | 65.1±25.9 | 57.9±25.0 | no significant difference | 61.2±24.1 | 7.5 | 11 | 6 (38) n(%) | 9 (56) n(%) | 2 (13) n(%) | 2 (13) n(%) | 10 (63) n(%) | 2 (13) n(%) | successful in improving IBS | poor rate

From patent publication US20160158262A1, “METHODS OF TREATING IRRITABLE BOWEL SYNDROME” (CEDARS-SINAI MEDICAL CENTER, priority 2013, published 2016)
